# Source: patent US6362369B1, “Phthalic acid diamide derivatives fluorine-containing aniline compounds as starting material, agricultural and horticultural insecticides, and a method for application of the insecticides” (Nihon Nohyaku Co., Ltd., priority 1997, dated 2002)
# How the values were obtained:
# Type in all cases: in vivo
# [1] = system: diamondback moth (Plutella xylostella); assay: Insecticidal effect on diamondback moth (Test Example 1); conditions: diamondback moth; mortality judged by criterion of Test Example 1
# How it was run: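 Read-out was mortality from hatched-insect counts taken 6 days after the egg-bearing cabbage seedling was immersed, graded by set criteria. Seedlings were air-dried and kept at 25° C after treatment. Groups of 10 insects, in triplicate.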
# [2] = system: common cutworm (Spodoptera Litura); assay: Insecticidal effect on common cutworm (Test Example 2); conditions: common cutworm second-instar larvae; cabbage leaf immersed, 500 ppm; eight days after inoculation; 25° C.
# How it was run: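 After the treated material air-dries, it goes into a dish, second-instar larvae are added, and the dish is closed. Incubation runs at 25° C. On day eight, dead and living larvae are scored, and the calculated mortality is rated on an effect scale.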
# [3] = system: rice leafroller (Cnaphalocrocis medinalis); assay: Insecticidal effect on rice leafroller (Test Example 3); conditions: rice leafroller third-instar larvae; rice lamina immersed, 500 ppm; four days after inoculation; 25° C., humidity 70%
# How it was run: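 Groups of 10 third-instar larvae, in triplicate, are placed on air-dried lamina resting on wet filter paper. Incubation runs four days at 25° C with 70% humidity before survivors and dead are tallied.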
Structure (SMILES),"Insecticidal effect, Test Example 1 [1]","Insecticidal effect, Test Example 2 [2]","Insecticidal effect, Test Example 3 [3]"
CCN(CC)C(=O)c1c(I)cccc1C(=O)Nc1ccc(C(F)(F)F)cc1C [compound 1144],A (100),A (100),A (100)
CC(C)NC(=O)c1c(C(=O)Nc2ccc3c(c2)OC(F)C(F)(F)O3)cccc1[N+](=O)[O-] (stereo not drawn) [compound 1146],A (100),C (89-80),A (100)
CC(C)NC(=O)c1c(Cl)cccc1C(=O)Nc1ccc2c(c1)OC(F)C(F)(F)O2 (stereo not drawn) [compound 1147],A (100),A (100),A (100)
CC(C)NC(=O)c1c(I)cccc1C(=O)Nc1ccc2c(c1)OC(F)C(F)(F)O2 (stereo not drawn) [compound 1148],A (100),A (100),A (100)
CC(C)(C)NC(=O)c1c(I)cccc1C(=O)Nc1ccc2c(c1)OC(F)C(F)(F)O2 (stereo not drawn) [compound 1150],A (100),A (100),A (100)
CCN(CC)C(=O)c1c(I)cccc1C(=O)Nc1ccc2c(c1)OC(F)C(F)(F)O2 (stereo not drawn) [compound 1151],A (100),A (100),A (100)
CCC(C)(C)NC(=O)c1c(F)cccc1C(=O)Nc1ccc(C(F)(F)C(F)(F)F)cc1C [compound 1152],A (100),A (100),A (100)
CCC(C)(C)NC(=O)c1c(F)cccc1C(=O)Nc1ccc(C(F)(C(F)(F)F)C(F)(F)F)cc1C [compound 1153],A (100),A (100),A (100)
CCC(C)(C)NC(=O)c1c(F)cccc1C(=O)Nc1ccc(OC(F)(F)F)cc1C [compound 1154],A (100),C (89-80),A (100)
CCCN(CCC)C(=O)c1c(I)cccc1C(=O)Nc1ccc(OC(F)(F)F)cc1C [compound 1156],A (100),A (100),A (100)
CCCN(CCC)C(=O)c1c(I)cccc1C(=O)Nc1ccc(OC(F)(F)C(F)F)cc1C [compound 1158],A (100),D (79-50),A (100)
CCN(C(=O)c1c(I)cccc1C(=O)Nc1ccc(C(F)(F)C(F)(F)F)cc1C)C(C)C [compound 1159],A (100),A (100),A (100)
CCN(C(=O)c1c(I)cccc1C(=O)Nc1ccc(OC(F)(F)F)cc1)C(C)C [compound 1160],A (100),A (100),A (100)
CC(C)NC(=O)c1c(I)cccc1C(=O)Nc1ccc2c(c1)OC(F)(F)C(F)O2 (stereo not drawn) [compound 1161],A (100),D (79-50),A (100)
CC(C)NC(=O)c1c(C(=O)Nc2ccc3c(c2)OC(F)(F)C(F)O3)cccc1[N+](=O)[O-] (stereo not drawn) [compound 1162],A (100),A (100),A (100)
CC(C)NC(=O)c1c(Cl)cccc1C(=O)Nc1ccc2c(c1)OC(F)(F)C(F)O2 (stereo not drawn) [compound 1163],A (100),A (100),A (100)
CC(C)NC(=O)c1c(I)cccc1C(=O)Nc1ccc2c(c1)OC(F)(F)C(F)O2 (stereo not drawn) [compound 1164],A (100),A (100),A (100)
